Active and inactive are the calls of the source. The rule behind the calls is not given here.
What was measured:
HEp-2 = assay: Cytotoxicity against human Hep2 cells assessed as reduction in cell viability after 72 hrs by MTT assay; assay type: functional, cell-based; conditions: HEp-2, 72 h
HCT-116 [1] = assay: Cytotoxicity against human HCT116 cells assessed as reduction in cell viability after 72 hrs by MTT assay; assay type: functional, cell-based
[2] = Cytotoxicity against human MS cells assessed as reduction in cell viability after 72 hrs by MTT assay; assay type: functional, cell-based
RD = assay: Cytotoxicity against human RD cells assessed as reduction in cell viability after 72 hrs by MTT assay; assay type: functional, cell-based
A549 = assay: Cytotoxicity against human A549 cells assessed as reduction in cell viability after 72 hrs by MTT assay; assay type: functional, cell-based; conditions: A549, 72 h
MCF7 = assay: Cytotoxicity against human MCF7 cells assessed as reduction in cell viability after 72 hrs by MTT assay; assay type: functional, cell-based; conditions: MCF7, 72 h
HCT-116 [3] = assay: Cytotoxicity against human HCT116 cells assessed as reduction in cell viability at 3 to 6 uM by MTT assay; assay type: functional, cell-based; conditions: TDE = time-dependent effect
HEK293 = assay: Cytotoxicity against HEK293 cells assessed as reduction in cell viability after 72 hrs by MTT assay; assay type: cell-based; conditions: Homo sapiens, HEK293, 72 h
[4] = Selectivity index, ratio of IC50 for HEK293 cells to IC50 for human Hep2 cells; assay type: toxicity; conditions: HEK293 cells versus Hep2 cells, read-out: Ratio IC50
[5] = Selectivity index, ratio of IC50 for HEK293 cells to IC50 for human MS cells; assay type: toxicity; conditions: HEK293 cells versus MS cells, read-out: Ratio IC50
[6] = Selectivity index, ratio of IC50 for HEK293 cells to IC50 for human MCF7 cells; assay type: toxicity; conditions: HEK293 cells versus MCF7 cells, read-out: Ratio IC50
HCT-116 [7] = assay: Induction of apoptosis in human HCT116 cells assessed as increase in number of cells with condense nucleus at 3 uM after 18 hrs by Hoechst 33258 /rhodamine 123 staining based fluorescence inverted microscopic analysis; assay type: functional, cell-based
HCT-116 [8] = assay: Induction of mitochondrial membrane depolarization in human HCT116 cells at 3 uM after 18 hrs by Hoechst 33258 /rhodamine 123 staining based fluorescence inverted microscopic analysis; assay type: functional, cell-based
HCT-116 [9] = assay: Induction of apoptosis in human HCT116 cells assessed as increase in early apoptotic cells after 18 hrs by Annexin V/7-AAD staining based flow cytometric analysis; assay type: functional, cell-based
HCT-116 [10] = assay: Induction of apoptosis in human HCT116 cells assessed as decrease in viable cells after 18 hrs by Annexin V/7-AAD staining based flow cytometric analysis; assay type: functional, cell-based
HCT-116 [11] = assay: Induction of apoptosis in human HCT116 cells assessed as early apoptotic cells at 3 uM after 18 hrs by Annexin V/7-AAD staining based flow cytometric analysis (reference value: 5.84%); assay type: functional
HCT-116 [12] = assay: Induction of apoptosis in human HCT116 cells assessed as late apoptotic cells at 3 uM after 18 hrs by Annexin V/7-AAD staining based flow cytometric analysis (reference value: 2.12%); assay type: functional
HCT-116 [13] = assay: Induction of apoptosis in human HCT116 cells assessed as necrotic cells at 3 uM after 18 hrs by Annexin V/7-AAD staining based flow cytometric analysis (reference value: 0.62%); assay type: functional
HCT-116 [14] = assay: Induction of apoptosis in human HCT116 cells assessed as viable cells at 3 uM after 18 hrs by Annexin V/7-AAD staining based flow cytometric analysis (reference value: 91.42%); assay type: functional; conditions: HCT-116, 18 h, read-out: Activity
HCT-116 [15] = assay: Induction of apoptosis in human HCT116 cells assessed as early apoptotic cells at 6 uM after 18 hrs by Annexin V/7-AAD staining based flow cytometric analysis (reference value: 5.84%); assay type: functional
HCT-116 [16] = assay: Induction of apoptosis in human HCT116 cells assessed as late apoptotic cells at 6 uM after 18 hrs by Annexin V/7-AAD staining based flow cytometric analysis (reference value: 2.12%); assay type: functional
HCT-116 [17] = assay: Induction of apoptosis in human HCT116 cells assessed as necrotic cells at 6 uM after 18 hrs by Annexin V/7-AAD staining based flow cytometric analysis (reference value: 0.62%); assay type: functional
HCT-116 [18] = assay: Induction of apoptosis in human HCT116 cells assessed as viable cells at 6 uM after 18 hrs by Annexin V/7-AAD staining based flow cytometric analysis (reference value: 91.42%); assay type: functional; conditions: HCT-116, 18 h, read-out: Activity
HCT-116 [19] = assay: Cell cycle arrest in human HCT116 cells assessed as decrease in accumulation at G0/G1 phase after 18 hrs by DAPI staining-based flow cytometric analysis; assay type: functional
HCT-116 [20] = assay: Cell cycle arrest in human HCT116 cells assessed as accumulation at G0/G1 phase at 3 uM after 18 hrs by DAPI staining-based flow cytometric analysis (RVB = 47.72%); assay type: functional
HCT-116 [21] = assay: Cell cycle arrest in human HCT116 cells assessed as accumulation at G2/M phase at 3 uM after 18 hrs by DAPI staining-based flow cytometric analysis (RVB = 17.25%); assay type: functional
HCT-116 [22] = assay: Cell cycle arrest in human HCT116 cells assessed as accumulation at S phase at 3 uM after 18 hrs by DAPI staining-based flow cytometric analysis (RVB = 25.49%); assay type: functional
HCT-116 [23] = assay: Cell cycle arrest in human HCT116 cells assessed as accumulation at sub-G0 phase at 3 uM after 18 hrs by DAPI staining-based flow cytometric analysis (RVB = 8.55%); assay type: functional
HCT-116 [24] = assay: Cell cycle arrest in human HCT116 cells assessed as accumulation at G0/G1 phase at 6 uM after 18 hrs by DAPI staining-based flow cytometric analysis (RVB = 47.72%); assay type: functional
HCT-116 [25] = assay: Cell cycle arrest in human HCT116 cells assessed as accumulation at G2/M phase at 6 uM after 18 hrs by DAPI staining-based flow cytometric analysis (RVB = 17.25%); assay type: functional
HCT-116 [26] = assay: Cell cycle arrest in human HCT116 cells assessed as accumulation at S phase at 6 uM after 18 hrs by DAPI staining-based flow cytometric analysis (RVB = 25.49%); assay type: functional
HCT-116 [27] = assay: Cell cycle arrest in human HCT116 cells assessed as accumulation at sub-G0 phase at 6 uM after 18 hrs by DAPI staining-based flow cytometric analysis (RVB = 8.55%); assay type: functional
HCT-116 [28] = assay: Antimigratory activity in human HCT116 cells after 96 hrs by wound healing assay; assay type: functional, cell-based
HCT-116 [29] = assay: Induction of apoptosis in human HCT116 cells assessed as early apoptotic cells at 2 uM after 18 hrs by Annexin V/7-AAD staining based flow cytometric analysis (reference value: 5.84%); assay type: functional
HCT-116 [30] = assay: Induction of apoptosis in human HCT116 cells assessed as late apoptotic cells at 2 uM after 18 hrs by Annexin V/7-AAD staining based flow cytometric analysis (reference value: 2.12%); assay type: functional
HCT-116 [31] = assay: Induction of apoptosis in human HCT116 cells assessed as necrotic cells at 2 uM after 18 hrs by Annexin V/7-AAD staining based flow cytometric analysis (reference value: 0.62%); assay type: functional
HCT-116 [32] = assay: Induction of apoptosis in human HCT116 cells assessed as viable cells at 2 uM after 18 hrs by Annexin V/7-AAD staining based flow cytometric analysis (reference value: 91.42%); assay type: functional; conditions: HCT-116, 18 h, read-out: Activity
HCT-116 [33] = assay: Cell cycle arrest in human HCT116 cells assessed as accumulation at G0/G1 phase at 2 uM after 18 hrs by DAPI staining-based flow cytometric analysis (RVB = 47.72%); assay type: functional
HCT-116 [34] = assay: Cell cycle arrest in human HCT116 cells assessed as accumulation at G2/M phase at 2 uM after 18 hrs by DAPI staining-based flow cytometric analysis (RVB = 17.25%); assay type: functional
HCT-116 [35] = assay: Cell cycle arrest in human HCT116 cells assessed as accumulation at S phase at 2 uM after 18 hrs by DAPI staining-based flow cytometric analysis (RVB = 25.49%); assay type: functional
HCT-116 [36] = assay: Cell cycle arrest in human HCT116 cells assessed as accumulation at sub-G0 phase at 2 uM after 18 hrs by DAPI staining-based flow cytometric analysis (RVB = 8.55%); assay type: functional
HCT-116 [37] = assay: Antimigratory activity in human HCT116 cells at 2 uM after 96 hrs by wound healing assay; assay type: functional, cell-based
HCT-116 [38] = assay: Cytotoxicity against human HCT116 cells assessed as reduction in cell viability at 2 uM by MTT assay; assay type: functional, cell-based; conditions: TDE = time-dependent effect

With `C=C(C=O)[C@@H]1CC[C@]2(C(=O)OC)CC[C@]3(C)[C@H](CC[C@@H]4[C@@](C)(CC#N)[C@H](C(C)(C)C(=O)COC(C)=O)CC[C@]43C)[C@@H]12` the IC50 (HEp-2) was 12.2 µM, the Activity (HCT-116 [1]) was “Dose-dependent effect” and the IC50 (HCT-116 [1]; HCT-116, 72 h) was 3.07 µM. It also gave an IC50 [2] of 3.61 µM, an IC50 (RD) of 3.5 µM and an IC50 (A549) of 10.2 µM. For the same molecule, the IC50 (MCF7) was 9.68 µM, the Activity (HCT-116 [3]) was “Tde” and the IC50 (HEK293) was 29.5 µM. It also gave a selectivity ratio [4] of 2.42 to 9.61, a selectivity ratio [5] of 2.42 to 9.61 and a selectivity ratio [6] of 2.42 to 9.61. For the same molecule, the Activity (HCT-116 [7]) was “Active”, the Activity (HCT-116 [8]) was “Active” and the Activity (HCT-116 [9]) was “Dose-dependent effect”. For the same molecule, the Activity (HCT-116 [10]) was “Dose-dependent effect”, the Activity (HCT-116 [11]) was 14.06% and the Activity (HCT-116 [12]) was 11.99%. For the same molecule, the Activity (HCT-116 [13]) was 2.6%, the viability at 3 µM (HCT-116 [14]) was 71.3% and the Activity (HCT-116 [15]) was 27.07%. For the same molecule, the Activity (HCT-116 [16]) was 11.2%, the Activity (HCT-116 [17]) was 3.21% and the viability at 6 µM (HCT-116 [18]) was 58.5%. The Activity (HCT-116 [19]) was “Dose-dependent effect”, the Activity (HCT-116 [20]) was 35.65% and the Activity (HCT-116 [21]) was 19.99%. For the same molecule, the Activity (HCT-116 [22]) was 28.16%, the Activity (HCT-116 [23]) was 15.07% and the Activity (HCT-116 [24]) was 21.49%. It also gave an Activity (HCT-116 [25]) of 15.27%, an Activity (HCT-116 [26]) of 24.03% and an Activity (HCT-116 [27]) of 38.29%. For the same molecule, the Activity (HCT-116 [28]) was “Dose-dependent effect”.

In the case of `CC[C@@]1(O)C(=O)OCc2c1cc1n(c2=O)Cc2cc3ccccc3nc2-1` [CAMPTOTHECIN], the Activity (HCT-116 [1]) is reported as “Dose-dependent effect”, the IC50 [2] is reported as 0.77 µM and the IC50 (RD) is reported as 1.72 µM. It also gave an IC50 (A549) of 1.31 µM, an IC50 (MCF7) of 0.04 µM and an IC50 (HEK293) of 1.61 µM. For the same molecule, the selectivity ratio [4] was 0.53 to 40.2, the selectivity ratio [5] was 0.53 to 40.2 and the selectivity ratio [6] was 0.53 to 40.2. The Activity (HCT-116 [29]) was 5.73%, the Activity (HCT-116 [30]) was 7.33% and the Activity (HCT-116 [31]) was 5.08%. The viability at 2 µM (HCT-116 [32]) was 81.9%, the Activity (HCT-116 [33]) was 27.71% and the Activity (HCT-116 [34]) was 10.06%. For the same molecule, the Activity (HCT-116 [35]) was 36.77%, the Activity (HCT-116 [36]) was 24.52% and the Activity (HCT-116 [37]) was “Active”. The Activity (HCT-116 [38]) was “Tde”.

— ChEMBL document CHEMBL4257573, “Synthesis, modification, and cytotoxic evaluation of 2,3-secotriterpenic β-ketoesters” (Bioorg Med Chem Lett, 2018)
